Source: patent US5942494A, “Stimulation of gene expression and synthesis of heat shock protein 72/73 (HSP 70)” (The Trustees of Columbia University in the City of New York, priority 1996, dated 1999)
Square brackets hold non-standard residues; d marks the D form. Peptide text beside a SMILES is read from it. Nle = CCCC[C@H](N)C(=O)O

What was measured:
[1] = test system: Hsp86; assay: Immunoprecipitation of Hsp86 from radiolabeled HepG2 cells; assay type: cell-based, human; conditions: HepG2, ALLN 4 hours
Protocol: FIGS. 7A-7B: Effects of ALLN on the biosynthesis of other members of Hsp family and related proteins. HepG2 cells were pre-treated and radiolabeled with or without ALLN for 4 hours as described in FIG. 1. Cell lysates were used for SDS-PAGE (A), or for immunoprecipitation with anti-Hsp25, -Hsp27, -Hsp60, -Hsp70, -Hsp86, -Hsp90, -Hsp104, -Bip, or -albumin antibodies respectively (1 μg/ml) (B). Because the anti-Hsp25, -Hsp27, -Hsp60 and Hsp90 antibodies are from a rat source, rabbit anti-rat IgG antibody was added after the first incubation, and the incubation was extended for another 1 hour at 4° C. before collection with protein A-Sepharose.Immunoprecipitates were loaded for SDS-PAGE and aliquoted for scintillation counting and plotting. Each value was presented as mean ±S.D. from three individual culture dishes.
(§1) HepG2 cells were preincubated for 4 hours in serum-free MEM and then radiolabeled with ^3 H-Leucine (150 μCi/ml) in a serum-free, leucine-free medium. […] Cell lysates containing equal amounts of trichloroacetic acid (TCA)-insoluble radioactivity were used for immunoprecipitations by incubating with individual monoclonal antibody (1 μg/ml) for 2.5 hours at 4° C. […]

[2] = test system: Hsp70; assay: Pulse-chase turnover of radiolabeled Hsp70 in HepG2 cells; assay type: cell-based, human
Protocol: FIGS. 4A-4B: Effects of ALLN on Hsp70 turnover and synthesis rates in HepG2 cells. Confluent culture dishes were preincubated for 4 hours with serum-free MEM containing either 1.5% BSA alone (Control) or BSA plus 40 μg/ml of ALLN (ALLN). (A) The preincubated cells were radiolabeled with 3H-leucine (150 μCi/ml) in serum-free, leucine-free medium with/without ALLN for 20 min., washed 3 times with medium free of isotope and then chased in serum-free medium containing BSA with/without ALLN for up to 20 hours. At the indicated time points, cells were harvested and lysed. Samples were immediately stored in a -80° C. freezer. Immunoprecipitation of Hsp70 was performed as described in FIG. 1. Data at each time point were presented as means of cpm from duplicate dishes. (B) . […]
FIGS. 8A-8C: Effects of ALLN on Hsp70 synthesis and turnover rates in HepG2 cells. […] Immunoprecipitates were analyzed on SDS-PAGE and fluorography (A) and also aliquoted for scintillation counting (B). […]
as §1

## CCCC[C@@H](C=O)NC(=O)[C@H](CC(C)C)NC(=O)[C@H](CC(C)C)NC(C)=O [ALLN, N-acetyl-leucyl-leucyl-norleucinal] (Ac-Leu-Leu-[Nle]-aldehyde)
[1]
  Effect on Hsp86: no effects
[2]; ALLN 40 μg/ml, pulse-chase, HepG2
  Half life of newly synthesized Hsp70 in the presence of ALLN: about 6 hours
[2]; ALLN versus no ALLN
  Increase in the half-life of Hsp70: 3-4 fold
